Assay results taken from the kinase profiling compilation of Christmann-Franck et al. (2016).

Assays:
Assay in all cases: radiometric filter-binding kinase assay, Kinase HotSpot
Conditions in all cases: compound 0.5 µM; ATP 10 µM
ACVRL1 (human) = ACVRL1 (human) (UniProt P37023)
ADRBK2 (human) = ADRBK2 (human) (UniProt P35626)
BRSK2 (human) = BRSK2 (human) (UniProt Q8IWQ3)
CAMKK1 (human) = CAMKK1 (human) (UniProt Q8N5S9)
CDK1 CCNA2 (human) = CDK1 CCNA2 (human) (UniProt P06493+P20248)
CDK1 CCNB1 (human) = CDK1 CCNB1 (human) (UniProt P06493+P14635)
CDK6 CCND1 (human) = CDK6 CCND1 (human) (UniProt Q00534+P24385)
CDK9 CCNK (human) = CDK9 CCNK (human) (UniProt O75909+P50750)
CSNK1E (human) = CSNK1E (human) (UniProt P49674)
EPHA2 (human) = EPHA2 (human) (UniProt P29317)
EPHA7 (human) = EPHA7 (human) (UniProt Q15375)
FER (human) = FER (human) (UniProt P16591)
FLT3 (human) = FLT3 (human) (UniProt P36888)
GRK7 (human) = GRK7 (human) (UniProt Q8WTQ7)
GSK3B (human) = GSK3B (human) (UniProt P49841)
HCK (human) = HCK (human) (UniProt P08631)
IRAK1 (human) = IRAK1 (human) (UniProt P51617)
LIMK1 (human) = LIMK1 (human) (UniProt P53667)
LTK (human) = LTK (human) (UniProt P29376)
MAP3K9 (human) = MAP3K9 (human) (UniProt P80192)
MLTK (human) = MLTK (human) (UniProt Q9NYL2)
MST4 (human) = MST4 (human) (UniProt Q9P289)
NUAK1 (human) = NUAK1 (human) (UniProt O60285)
PIM2 (human) = PIM2 (human) (UniProt Q9P1W9)
PKN1 (human) = PKN1 (human) (UniProt Q16512)
PRKCB1 (human) = PRKCB1 (human) (UniProt P05771)
PRKCI (human) = PRKCI (human) (UniProt P41743)
PRKD1 (human) = PRKD1 (human) (UniProt Q15139)
PTK2 (human) = PTK2 (human) (UniProt Q05397)
RAF1 (human) = RAF1 (human) (UniProt P04049)
RPS6KA5 KD2 (human) = RPS6KA5 KD2 (human) (UniProt O75582)
RPS6KB2 (human) = RPS6KB2 (human) (UniProt Q9UBS0)
SRPK2 (human) = SRPK2 (human) (UniProt P78362)
SRPK3 (human) = SRPK3 (human) (UniProt Q9UPE1)
STK10 (human) = STK10 (human) (UniProt O94804)
STK11 (human) = STK11 (human) (UniProt Q15831)
STK17A (human) = STK17A (human) (UniProt Q9UEE5)
TAOK1 (human) = TAOK1 (human) (UniProt Q7L7X3)
TAOK2 (human) = TAOK2 (human) (UniProt Q9UL54)
VRK1 (human) = VRK1 (human) (UniProt Q99986)
ZAP70 (human) = ZAP70 (human) (UniProt P43403)
PAK6 (human) = PAK6 (human) (UniProt Q9NQU5)

Sequence of LIMK1 (human) (P53667 whole entry, looked up): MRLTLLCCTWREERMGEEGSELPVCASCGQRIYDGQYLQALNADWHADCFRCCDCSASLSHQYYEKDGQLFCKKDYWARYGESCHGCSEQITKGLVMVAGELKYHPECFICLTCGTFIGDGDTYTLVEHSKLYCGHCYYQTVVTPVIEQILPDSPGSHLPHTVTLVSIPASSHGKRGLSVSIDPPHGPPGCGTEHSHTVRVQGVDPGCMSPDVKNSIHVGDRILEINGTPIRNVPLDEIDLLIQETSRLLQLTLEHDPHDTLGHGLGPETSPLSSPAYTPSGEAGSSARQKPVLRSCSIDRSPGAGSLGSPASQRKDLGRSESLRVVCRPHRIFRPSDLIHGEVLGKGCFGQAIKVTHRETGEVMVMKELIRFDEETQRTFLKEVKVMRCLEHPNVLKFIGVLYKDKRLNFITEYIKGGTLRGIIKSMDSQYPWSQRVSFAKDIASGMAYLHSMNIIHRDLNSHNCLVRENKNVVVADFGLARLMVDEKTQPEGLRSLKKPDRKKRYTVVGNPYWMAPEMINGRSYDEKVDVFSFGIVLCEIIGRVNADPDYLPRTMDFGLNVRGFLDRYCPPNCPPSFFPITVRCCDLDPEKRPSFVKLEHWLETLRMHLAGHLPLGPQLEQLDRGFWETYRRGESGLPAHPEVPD
Sequence of PRKD1 (human) (Q15139 whole entry, looked up): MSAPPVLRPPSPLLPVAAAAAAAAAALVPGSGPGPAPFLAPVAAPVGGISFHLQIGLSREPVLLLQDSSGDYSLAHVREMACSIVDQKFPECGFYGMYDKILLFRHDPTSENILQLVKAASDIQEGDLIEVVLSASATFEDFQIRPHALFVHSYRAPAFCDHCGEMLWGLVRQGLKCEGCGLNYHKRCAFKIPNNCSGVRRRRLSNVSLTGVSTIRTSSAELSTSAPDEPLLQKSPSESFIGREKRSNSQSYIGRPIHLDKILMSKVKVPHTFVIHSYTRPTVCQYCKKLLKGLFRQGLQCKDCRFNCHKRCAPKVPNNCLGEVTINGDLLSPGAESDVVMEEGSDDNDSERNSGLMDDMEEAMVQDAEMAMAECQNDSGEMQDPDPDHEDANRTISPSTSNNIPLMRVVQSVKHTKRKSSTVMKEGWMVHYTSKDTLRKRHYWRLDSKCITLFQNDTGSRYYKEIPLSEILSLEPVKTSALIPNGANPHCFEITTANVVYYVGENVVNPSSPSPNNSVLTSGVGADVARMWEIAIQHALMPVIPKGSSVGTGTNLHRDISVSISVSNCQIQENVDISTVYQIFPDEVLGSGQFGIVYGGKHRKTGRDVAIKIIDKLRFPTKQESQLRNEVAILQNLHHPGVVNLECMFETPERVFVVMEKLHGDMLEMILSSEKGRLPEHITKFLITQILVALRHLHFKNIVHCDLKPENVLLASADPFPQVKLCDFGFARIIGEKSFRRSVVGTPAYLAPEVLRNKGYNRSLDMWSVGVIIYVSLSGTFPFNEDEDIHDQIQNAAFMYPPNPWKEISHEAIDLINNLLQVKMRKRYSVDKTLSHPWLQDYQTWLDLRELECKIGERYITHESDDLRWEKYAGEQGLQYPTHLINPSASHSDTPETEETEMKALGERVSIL
Sequence of CAMKK1 (human) (Q8N5S9 whole entry, looked up): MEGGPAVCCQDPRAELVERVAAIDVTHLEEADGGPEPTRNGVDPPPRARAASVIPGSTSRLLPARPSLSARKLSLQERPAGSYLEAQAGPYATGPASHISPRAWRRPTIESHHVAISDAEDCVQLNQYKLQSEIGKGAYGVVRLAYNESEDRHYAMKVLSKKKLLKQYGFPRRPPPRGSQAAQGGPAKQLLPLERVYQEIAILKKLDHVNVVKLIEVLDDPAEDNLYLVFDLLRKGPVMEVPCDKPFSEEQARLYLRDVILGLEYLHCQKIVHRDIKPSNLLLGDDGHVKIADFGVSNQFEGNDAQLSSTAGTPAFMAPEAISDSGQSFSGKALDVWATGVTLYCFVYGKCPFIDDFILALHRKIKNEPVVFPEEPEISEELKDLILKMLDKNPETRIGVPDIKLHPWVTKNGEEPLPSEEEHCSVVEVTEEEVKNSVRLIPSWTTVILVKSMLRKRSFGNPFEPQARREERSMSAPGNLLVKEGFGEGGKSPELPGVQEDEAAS
Sequence of GSK3B (human) (P49841 whole entry, looked up): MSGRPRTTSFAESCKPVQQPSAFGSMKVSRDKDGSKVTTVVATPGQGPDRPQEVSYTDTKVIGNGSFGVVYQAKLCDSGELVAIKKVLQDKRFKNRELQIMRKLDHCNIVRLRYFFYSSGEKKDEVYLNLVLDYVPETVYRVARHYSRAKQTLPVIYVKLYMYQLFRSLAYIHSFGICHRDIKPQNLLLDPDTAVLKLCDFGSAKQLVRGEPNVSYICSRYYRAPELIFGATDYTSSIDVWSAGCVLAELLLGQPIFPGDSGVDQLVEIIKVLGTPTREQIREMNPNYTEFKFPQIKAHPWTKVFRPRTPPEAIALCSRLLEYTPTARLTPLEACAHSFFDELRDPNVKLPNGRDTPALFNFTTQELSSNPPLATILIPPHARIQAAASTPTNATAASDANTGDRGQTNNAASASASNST
Sequence of SRPK3 (human) (Q9UPE1 whole entry, looked up): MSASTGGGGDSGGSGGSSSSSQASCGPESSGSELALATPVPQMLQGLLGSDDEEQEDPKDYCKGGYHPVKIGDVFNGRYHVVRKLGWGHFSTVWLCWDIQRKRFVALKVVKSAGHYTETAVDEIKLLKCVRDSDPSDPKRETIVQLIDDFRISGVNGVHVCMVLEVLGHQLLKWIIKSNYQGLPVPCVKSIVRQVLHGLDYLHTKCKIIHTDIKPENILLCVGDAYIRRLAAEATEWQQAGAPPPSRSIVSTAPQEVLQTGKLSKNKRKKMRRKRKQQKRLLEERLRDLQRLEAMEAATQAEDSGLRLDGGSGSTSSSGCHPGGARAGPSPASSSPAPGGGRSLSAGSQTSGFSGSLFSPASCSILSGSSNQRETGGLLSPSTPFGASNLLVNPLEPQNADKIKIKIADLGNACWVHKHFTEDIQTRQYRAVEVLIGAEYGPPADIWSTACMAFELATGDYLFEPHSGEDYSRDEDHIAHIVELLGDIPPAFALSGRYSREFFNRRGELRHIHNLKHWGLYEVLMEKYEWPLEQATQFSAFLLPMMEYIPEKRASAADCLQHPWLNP
Sequence of MST4 (human) (Q9P289 whole entry, looked up): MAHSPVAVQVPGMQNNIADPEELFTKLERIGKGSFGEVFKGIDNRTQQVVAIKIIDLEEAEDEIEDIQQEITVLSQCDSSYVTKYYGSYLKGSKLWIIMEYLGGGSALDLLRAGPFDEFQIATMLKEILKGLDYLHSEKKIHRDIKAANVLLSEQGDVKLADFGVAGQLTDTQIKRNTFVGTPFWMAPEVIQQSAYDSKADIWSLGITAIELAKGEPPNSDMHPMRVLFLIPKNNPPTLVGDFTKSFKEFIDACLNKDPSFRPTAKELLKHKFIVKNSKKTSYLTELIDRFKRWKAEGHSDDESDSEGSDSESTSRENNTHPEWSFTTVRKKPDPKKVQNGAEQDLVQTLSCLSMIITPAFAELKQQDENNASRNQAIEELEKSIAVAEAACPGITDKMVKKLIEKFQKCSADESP
Sequence of RPS6KB2 (human) (Q9UBS0 whole entry, looked up): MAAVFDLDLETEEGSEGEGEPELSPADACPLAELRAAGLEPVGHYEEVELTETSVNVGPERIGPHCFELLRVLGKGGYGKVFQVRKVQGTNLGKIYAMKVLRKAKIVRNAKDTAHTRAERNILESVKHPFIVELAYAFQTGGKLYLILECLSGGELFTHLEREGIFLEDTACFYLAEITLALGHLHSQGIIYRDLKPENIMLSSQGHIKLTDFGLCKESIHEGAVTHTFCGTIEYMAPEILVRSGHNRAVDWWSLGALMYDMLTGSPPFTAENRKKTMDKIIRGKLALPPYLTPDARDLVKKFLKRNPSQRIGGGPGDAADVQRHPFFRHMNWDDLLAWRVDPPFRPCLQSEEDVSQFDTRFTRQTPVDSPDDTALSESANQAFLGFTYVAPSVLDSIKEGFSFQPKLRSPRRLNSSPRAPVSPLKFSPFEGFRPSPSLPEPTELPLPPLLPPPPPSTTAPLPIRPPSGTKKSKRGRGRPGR
Sequence of BRSK2 (human) (Q8IWQ3 whole entry, looked up): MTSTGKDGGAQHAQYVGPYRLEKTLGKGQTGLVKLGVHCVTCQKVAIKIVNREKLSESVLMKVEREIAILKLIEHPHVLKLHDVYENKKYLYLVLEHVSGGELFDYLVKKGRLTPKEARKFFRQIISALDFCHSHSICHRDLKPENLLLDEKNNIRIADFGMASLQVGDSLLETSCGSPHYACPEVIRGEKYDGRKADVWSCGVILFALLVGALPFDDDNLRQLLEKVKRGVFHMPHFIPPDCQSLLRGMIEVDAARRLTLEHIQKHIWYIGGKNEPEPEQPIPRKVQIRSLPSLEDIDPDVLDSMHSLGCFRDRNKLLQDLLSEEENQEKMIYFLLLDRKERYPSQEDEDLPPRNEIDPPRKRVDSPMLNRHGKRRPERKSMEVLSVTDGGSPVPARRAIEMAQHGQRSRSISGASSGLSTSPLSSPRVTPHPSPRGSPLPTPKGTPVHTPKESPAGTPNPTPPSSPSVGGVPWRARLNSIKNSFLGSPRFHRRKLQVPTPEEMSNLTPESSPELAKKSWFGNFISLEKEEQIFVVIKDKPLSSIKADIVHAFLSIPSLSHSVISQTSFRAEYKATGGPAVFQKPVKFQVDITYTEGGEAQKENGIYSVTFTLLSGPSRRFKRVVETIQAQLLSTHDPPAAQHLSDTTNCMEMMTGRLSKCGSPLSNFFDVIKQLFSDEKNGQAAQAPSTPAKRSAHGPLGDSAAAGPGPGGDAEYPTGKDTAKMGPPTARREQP
Sequence of PIM2 (human) (Q9P1W9 whole entry, looked up): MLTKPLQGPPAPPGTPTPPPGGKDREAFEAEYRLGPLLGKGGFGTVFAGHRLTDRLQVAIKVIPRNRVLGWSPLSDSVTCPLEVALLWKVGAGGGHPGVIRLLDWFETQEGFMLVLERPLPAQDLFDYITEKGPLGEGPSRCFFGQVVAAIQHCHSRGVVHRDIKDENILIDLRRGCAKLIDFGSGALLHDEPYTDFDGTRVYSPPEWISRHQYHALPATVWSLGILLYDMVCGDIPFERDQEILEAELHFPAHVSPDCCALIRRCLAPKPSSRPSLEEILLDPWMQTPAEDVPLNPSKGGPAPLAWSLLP

CC(C)n1cnc2c(Nc3cccc(Cl)c3)nc(NCCO)nc21 showed a residual activity (ACVRL1 (human)) of 103%, a residual activity (ADRBK2 (human)) of 90.5% and a residual activity (BRSK2 (human)) of 95%. It also gave a residual activity (CAMKK1 (human)) of 88.2%, a residual activity (CDK1 CCNA2 (human)) of 78.5% and a residual activity (CDK1 CCNB1 (human)) of 46.6%. For the same molecule, the residual activity (CDK6 CCND1 (human)) was 95.5%, the residual activity (CDK9 CCNK (human)) was 86.9% and the residual activity (CSNK1E (human)) was 65.4%. The residual activity (EPHA2 (human)) was 93.3%, the residual activity (EPHA7 (human)) was 87.1% and the residual activity (FER (human)) was 79.5%. The residual activity (FLT3 (human)) was 15.1%, the residual activity (GRK7 (human)) was 88.7% and the residual activity (GSK3B (human)) was 96%. For the same molecule, the residual activity (HCK (human)) was 78%, the residual activity (IRAK1 (human)) was 101% and the residual activity (LIMK1 (human)) was 105%. It also gave a residual activity (LTK (human)) of 85.3%, a residual activity (MAP3K9 (human)) of 27.2% and a residual activity (MLTK (human)) of 96.6%. It also gave a residual activity (MST4 (human)) of 87.9%, a residual activity (NUAK1 (human)) of 67.3% and a residual activity (PIM2 (human)) of 97%. The residual activity (PKN1 (human)) was 101%, the residual activity (PRKCB1 (human)) was 102% and the residual activity (PRKCI (human)) was 101%. The residual activity (PRKD1 (human)) was 99.2%, the residual activity (PTK2 (human)) was 68.9% and the residual activity (RAF1 (human)) was 105%. For the same molecule, the residual activity (RPS6KA5 KD2 (human)) was 87%, the residual activity (RPS6KB2 (human)) was 97% and the residual activity (SRPK2 (human)) was 37.1%. For the same molecule, the residual activity (SRPK3 (human)) was 47.7%, the residual activity (STK10 (human)) was 86.9% and the residual activity (STK11 (human)) was 76.1%. The residual activity (STK17A (human)) was 96.8%, the residual activity (TAOK1 (human)) was 94.4% and the residual activity (TAOK2 (human)) was 97.2%. It also gave a residual activity (VRK1 (human)) of 96.3% and a residual activity (ZAP70 (human)) of 98.3%.

COc1ccc(-c2cnc3c(-c4ccsc4)cnn3c2)cc1 showed a residual activity (ACVRL1 (human)) of 76.4%, a residual activity (ADRBK2 (human)) of 97.8% and a residual activity (BRSK2 (human)) of 94.1%. It also gave a residual activity (CAMKK1 (human)) of 79.2%, a residual activity (CDK1 CCNA2 (human)) of 87.4% and a residual activity (CDK1 CCNB1 (human)) of 87.2%. It also gave a residual activity (CDK6 CCND1 (human)) of 53.4%, a residual activity (CDK9 CCNK (human)) of 76.9% and a residual activity (CSNK1E (human)) of 86.3%. It also gave a residual activity (EPHA2 (human)) of 95.9%, a residual activity (EPHA7 (human)) of 91.1% and a residual activity (FER (human)) of 81.5%. For the same molecule, the residual activity (FLT3 (human)) was 11.1%, the residual activity (GRK7 (human)) was 99.9% and the residual activity (GSK3B (human)) was 99.4%. It also gave a residual activity (HCK (human)) of 81.9%, a residual activity (IRAK1 (human)) of 94% and a residual activity (LIMK1 (human)) of 71.2%. The residual activity (LTK (human)) was 98.9%, the residual activity (MAP3K9 (human)) was 65.6% and the residual activity (MLTK (human)) was 84.1%. For the same molecule, the residual activity (MST4 (human)) was 95.7%, the residual activity (NUAK1 (human)) was 77.9% and the residual activity (PIM2 (human)) was 105%. The residual activity (PKN1 (human)) was 93.1%, the residual activity (PRKCB1 (human)) was 101% and the residual activity (PRKCI (human)) was 96.2%. For the same molecule, the residual activity (PRKD1 (human)) was 95.1%, the residual activity (PTK2 (human)) was 93% and the residual activity (RAF1 (human)) was 95.5%. The residual activity (RPS6KA5 KD2 (human)) was 90.3%, the residual activity (RPS6KB2 (human)) was 100% and the residual activity (SRPK2 (human)) was 94.1%. It also gave a residual activity (SRPK3 (human)) of 94.1%, a residual activity (STK10 (human)) of 81.6% and a residual activity (STK11 (human)) of 95.9%. For the same molecule, the residual activity (STK17A (human)) was 91.6%, the residual activity (TAOK1 (human)) was 105% and the residual activity (TAOK2 (human)) was 97.4%. It also gave a residual activity (VRK1 (human)) of 105% and a residual activity (ZAP70 (human)) of 93.7%.

CC(C)(C)c1nc2c3ccc(F)cc3c3c(=O)[nH]ccc3c2[nH]1 gave a residual activity (ACVRL1 (human)) of 105%, a residual activity (ADRBK2 (human)) of 104% and a residual activity (BRSK2 (human)) of 21.4%. The residual activity (CAMKK1 (human)) was 81.4%, the residual activity (CDK1 CCNA2 (human)) was 89.4% and the residual activity (CDK1 CCNB1 (human)) was 74.9%. The residual activity (CDK6 CCND1 (human)) was 87.7%, the residual activity (CDK9 CCNK (human)) was 92.3% and the residual activity (CSNK1E (human)) was 85.6%. It also gave a residual activity (EPHA2 (human)) of 98.5%, a residual activity (EPHA7 (human)) of 96% and a residual activity (FER (human)) of 34%. For the same molecule, the residual activity (FLT3 (human)) was 13.6%, the residual activity (GRK7 (human)) was 60.5% and the residual activity (GSK3B (human)) was 95.1%. The residual activity (HCK (human)) was 84.8%, the residual activity (IRAK1 (human)) was 76.3% and the residual activity (LIMK1 (human)) was 73.7%. For the same molecule, the residual activity (LTK (human)) was 20.6%, the residual activity (MAP3K9 (human)) was 20.4% and the residual activity (MLTK (human)) was 78.1%. It also gave a residual activity (MST4 (human)) of 70.9%, a residual activity (NUAK1 (human)) of 3.04% and a residual activity (PAK6 (human)) of 90.9%. For the same molecule, the residual activity (PIM2 (human)) was 90.8%, the residual activity (PKN1 (human)) was 28.3% and the residual activity (PRKCB1 (human)) was 91.5%. For the same molecule, the residual activity (PRKCI (human)) was 96%, the residual activity (PRKD1 (human)) was 8.19% and the residual activity (PTK2 (human)) was 35.3%. The residual activity (RAF1 (human)) was 134%, the residual activity (RPS6KA5 KD2 (human)) was 58% and the residual activity (RPS6KB2 (human)) was 102%. For the same molecule, the residual activity (SRPK2 (human)) was 70.5%, the residual activity (SRPK3 (human)) was 58.6% and the residual activity (STK10 (human)) was 72.6%. For the same molecule, the residual activity (STK11 (human)) was 58.4%, the residual activity (STK17A (human)) was 6.42% and the residual activity (TAOK1 (human)) was 86.9%. The residual activity (VRK1 (human)) was 82.2% and the residual activity (ZAP70 (human)) was 88.9%.
